A value given as a limit tells only on which side of the number the result lay.

Sequence of HPK1 (Q92918 whole entry): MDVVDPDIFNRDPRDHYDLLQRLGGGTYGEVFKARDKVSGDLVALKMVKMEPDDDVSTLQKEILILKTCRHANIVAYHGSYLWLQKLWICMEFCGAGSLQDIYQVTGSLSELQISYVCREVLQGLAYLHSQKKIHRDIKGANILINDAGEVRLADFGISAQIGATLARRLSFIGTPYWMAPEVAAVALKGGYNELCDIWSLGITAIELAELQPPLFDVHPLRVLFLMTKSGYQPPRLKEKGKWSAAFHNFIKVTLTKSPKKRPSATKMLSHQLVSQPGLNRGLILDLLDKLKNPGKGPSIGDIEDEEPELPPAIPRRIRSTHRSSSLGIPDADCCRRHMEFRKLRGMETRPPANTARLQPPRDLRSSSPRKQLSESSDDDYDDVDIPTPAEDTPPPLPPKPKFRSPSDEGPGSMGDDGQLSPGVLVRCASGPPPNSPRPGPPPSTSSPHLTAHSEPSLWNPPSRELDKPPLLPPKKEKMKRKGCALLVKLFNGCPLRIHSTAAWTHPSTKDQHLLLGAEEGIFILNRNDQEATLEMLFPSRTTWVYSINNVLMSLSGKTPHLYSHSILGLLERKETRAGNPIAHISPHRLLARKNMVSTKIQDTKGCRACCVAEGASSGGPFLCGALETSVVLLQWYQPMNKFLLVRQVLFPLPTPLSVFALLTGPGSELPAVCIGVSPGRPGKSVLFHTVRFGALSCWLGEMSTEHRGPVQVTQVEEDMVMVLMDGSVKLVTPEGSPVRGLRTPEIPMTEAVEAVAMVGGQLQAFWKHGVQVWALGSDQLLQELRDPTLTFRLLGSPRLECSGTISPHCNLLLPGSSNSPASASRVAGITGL

This assay addresses HPK1 (Homo sapiens (Human), UniProt Q92918). Briefly: HPK1 biochemical enzyme assay (microfluidic mobility shift assay). To be noted: 1.5 nM HPK1, ATP 1 mM final, 30 min preincubation, 60 min at RT, Caliper EZ Reader; read-out: HPK1 1000UMATP caliper IC50. The essentials: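 Mobility shift readout of HPK1 activity after a 60 min RT reaction with 1 mM ATP, 1 μM substrate and 5 mM MgCl2. Enzyme/substrate mix was first exposed to compounds for 30 min, using ten-point curves topping at 3 μM final.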
On to `Cn1ccc2c(-c3ncc(Nc4ccc(N5CC6CCC(C5)N6)cn4)c4c3CNC4=O)ccnc21` [I-262, 7-((5-(3,8-diazabicyclo [3.2.1]octan-3-yl)pyridin-2-yl)amino)-4-(1-methyl-1H-pyrrolo[2,3-b]pyridin-4-yl)-2,3-dihydro-1H-pyrrolo[3,4-c]pyridin-1-Fone], for which the IC50 was under 100 nM. For `C[C@H]1CCn2ncc(-c3ccc(Nc4ccc(N5CCN(C)CC5)cn4)c4c3CNC4=O)c2C1` [I-264, (S)-4-(5-methyl-4,5,6,7-tetrahydropyra-zolo[1,5-a]pyridin-3-yl)-7-((5-(4-methylpiperazin-1-yl)pyridin-2-yl)amino)isoin-dolin-1-one], the IC50 was under 100 nM. With `CN1CCN(c2ccc(Nc3ccc(-c4ccnc5c4ccn5C4CC4)c4c3C(=O)NC4)nc2)CC1` [I-265, 4-(1-cyclopropyl-1H-pyrrolo[2,3-b]pyridin-4-yl)-7-((5-(4-methylpiperazin-1-yl)pyridin-2-yl)amino)isoin-dolin-1-one] the figure was under 100 nM; with `COc1cc(N2CCC(O)CC2)cnc1Nc1ccc(-c2ccnc3c2ccn3C)c2c1C(=O)NC2` [I-267, 7-((5-(4-hydroxy-piperidin-1-yl)-3-methoxypyridin-2-yl)amino)-4-(1-methyl-1H-pyrrolo[2,3-b]pyridin-4-yl)isoindolin-1-one], over 1000 nM. Next, `CN1CCN(c2ccc(Nc3cnc(-c4cnc5n4CCC5)c4c3C(=O)NC4)nc2)CC1` [I-268, 4-(6,7-dihydro-5H-pyrrolo[1,2-a]imidazol-3-yl)-7-((5-(4-methylpiperazin-1-yl)pyridin-2-yl)amino)-2.3-dihydro-1H-pyrrolo[3,4-c]pyridin-1-one]: 100 to 1000 nM; `CN1CCN(c2ccc(Nc3ccc(-c4ccnc5c4ccn5CC(N)=O)c4c3C(=O)NC4)nc2)CC1` [I-269, 2-(4-(7-((5-(4-methylpiperazin-1-yl)pyridin-2-yl)amino)-1-oxoisoindolin-4-yl)-lH-pyrrolo[2.3-b]pyridin-1-yl)acctamide]: under 100 nM; `CN1CCN(c2ccc(Nc3ccc(-c4ccnc5ocnc45)c4c3C(=O)NC4)nc2)CC1` [I-270, 7-((5-(4-methylpiperazin-1-yl)pyridin-2-yl)amino)-4-(oxazolo[5,4-b]pyridin-7-yl)isoindolin-1-one]: 100 to 1000 nM. With `CN1CCC(c2ccc(Nc3ccc(-c4ccnc5c4ccn5C)c4c3C(=O)NC4)nc2)CC1=O` (stereo not shown) [I-271, 4-(1-methyl-1H-pyrrolo[2,3-b]pyridin-4-yl)-7-((5-(1-methyl-2-oxopiperidin-4-yl)pyridin-2-yl)amino)isoin-dolin-1-one] the figure was under 100 nM; with `Cn1ccc2c(-c3ccc(Nc4ccc(C5(C)CCNCC5)cn4)c4c3CNC4=O)ccnc21` [I-272, 4-(1-methyl-1H-pyrrolo[2,3-b]pyridin-4-yl)-7-((5-(4-methylpiperidin-4-yl)pyridin-2-yl)amino)isoin-dolin-1-one], under 100 nM. With `Cn1ccc2c(-c3ccc(Nc4ccc(N5CCNCC5)cn4)c4c3C(C)(C)NC4=O)ccnc21` [I-273, 3,3-dimethyl-4-(1-methyl-1H-pyrrolo[2,3-b]pyridin-4-yl)-7-((5-(piperazin-1-yl)pyridin-2-yl)amino)isoindolin-1-one], the IC50 is over 1000 nM. For the compound `CN1CCC(O)(c2ccc(Nc3ccc(-c4ccnc5c4ccn5C)c4c3C(=O)NC4)nc2)CC1` [I-274, 7-((5-(4-hydroxy-1-methylpiperidin-4-yl)pyridin-2-yl)amino)-4-(1-methyl-1H-pyrrolo[2,3-b]pyridin-4-yl)isoindolin-1-one], the concentration for half-maximal inhibition (IC50) was under 100 nM. Next, `CN1CCC(C)(c2ccc(Nc3ccc(-c4ccnc5c4ccn5C)c4c3C(=O)NC4)nc2)CC1` [I-275, 7-((5-(1,4-dimethyl-piperidin-4-yl)pyridin-2-yl)amino)-4-(1-methyl-1H-pyrrolo[2,3-b]pyridin-4-yl)isoindolin-1-one]: under 100 nM.

Take `Cn1ccc2c(-c3ccc(Nc4ccc(N5CC[C@@H](O)C5)cn4)c4c3CNC4=O)ccnc21` [I-278, (R)-7-((5-(3-hydroxy-pyrrolidin-1-yl)pyridin-2-yl)amino)-4-(1-methyl-1H-pyrrolo[2,3-b]pyridin-4-yl)isoindolin-1-one]: the IC50 is under 100 nM. Next, `Cn1ccc2c(-c3ncc(Nc4ccc(N5CCC(O)CC5)cn4)c4c3CNC4=O)cccc21` [I-279, 7-((5-(4-hydroxypi-peridin-1-yl)pyridin-2-yl)amino)-4-(1-methyl-1H-indol-4-yl)-2.3-dihydro-1H-pyrrolo[3,4-c]pyridin-1-one]: under 100 nM.

Turning to `Cn1ccc2c(-c3ccc(Nc4ccc(N5CCC(O)CC5)cn4)c4c3C(C)(C)NC4=O)ccnc21` [I-282, 7-((5-(4-hydroxypiper-idin-1-yl)pyridin-2-yl)amino)-3.3-dimethyl-4-(1-methyl-1H-pyrrolo[2,3-b]pyridin-4-yl)isoindolin-1-one], the IC50 is over 1000 nM. With `O=C1NCc2c(-c3cnn4c3CCCCC4)ccc(Nc3ccc(N4CCC(O)CC4)cn3)c21` [I-283, 7-((5-(4-hydroxy-piperidin-1-yl)pyridin-2-yl)amino)-4-(5,6,7,8-tetrahydro-4H-pyrazolo[1,5-a]azepin-3-yl)isoindolin-1-one] the figure was 100 to 1000 nM. As for `O=C1NCc2c(-c3cnn4c3CCCC4)ccc(Nc3ccc(N4CCC(O)CC4)cn3)c21` [I-284, 7-((5-(4-hydroxy-piperidin-1-yl)pyridin-2-yl)amino)-4-(4,5,6,7-tetrahydropyra-zolo[1,5-a]pyridin-3-yl)isoindolin-1-one], the IC50 is under 100 nM. For the compound `Cn1ccc2c(-c3ccc(Nc4ccc(N5CC[C@H](O)C5)cn4)c4c3CNC4=O)ccnc21` [I-285, (S)-7-((5-(3-hydroxy-pyrrolidin-1-yl)pyridin-2-yl)amino)-4-(1-methyl-1H-pyrrolo[2,3-b]pyridin-4-yl)isoindolin-1-one], the IC50 is under 100 nM.

For the compound `O=C1NCc2c(-c3cnc4n3CCCCC4)ccc(Nc3ccc(N4CCC(O)CC4)cn3)c21` [I-288, 7-((5-(4-hydroxy-piperidin-1-yl)pyridin-2-yl)amino)-4-(6,7,8,9-tetrahydro-5H-imidazo[1,2-a]azepin-3-yl)isoindolin-1-one], the IC50 lay within 100 to 1000 nM. With `Cn1ccc2c(-c3ncc(Nc4ccc(N5C[C@H]6C[C@@H]5CO6)cn4)c4c3CNC4=O)ccnc21` [I-289, 7-((5-((1R,4R)-2-oxa-5-azabicyclo[2.2.1]heptan-5-yl)pyridin-2-yl)amino)-4-(1-methyl-1H-pyrrolo[2,3-b]pyridin-4-yl)-2,3-dihydro-1H-pyrrolo[3,4-c]pyridin-1-one] the figure was under 100 nM; with `CN1CCc2cc(-c3ccc(Nc4ccc(N5CCC(O)CC5)cn4)c4c3CNC4=O)nn2CC1=O` [I-290, 2-(7-((5-(4-hydroxy-piperidin-1-yl)pyridin-2-yl)amino)-1-oxoisoindolin-4-yl)-6-methyl-5,6-dihydro-4H-pyrazolo[1,5-d][1,4]diaze-pin-7(8H)-one], over 1000 nM; with `Cn1ccc2c(-c3ccc(Nc4ccc(N5CCC(O)(CN6CCOCC6)CC5)cn4)c4c3CNC4=O)ccnc21` [I-291, 7-((5-(4-hydroxy-4-(morpholino-methyl)piperi-din-1-yl)pyridin-2-yl)amino)-4-(1-methyl-1H-pyrrolo[2,3-b]pyridin-4-yl)isoindolin-1-one], under 100 nM. With `Cn1ccc2c(-c3ccc(Nc4ccc(CS(C)(=O)=O)cn4)c4c3CNC4=O)ccnc21` [I-293, 4-(1-methyl-1H-pyrrolo[2,3-b]pyridin-4-yl)-7-((5-((methylsulfonyl)methyl)pyridin-2-yl)amino)isoindolin-1-one] the figure was under 100 nM; with `CN1CCc2cc(Nc3ccc(-c4ccnc5c4ccn5C)c4c3C(=O)NC4)nn2CC1=O` [I-294, 6-methyl-2-((7-(1-methyl-1H-pyrrolo[2,3-b]pyridin-4-yl)-3-oxoisoindolin-4-yl)amino)-5.6-dihydro-4H-pyrazolo[1,5-d][l,4]diaze-pin-7(8H)-one], under 100 nM. For the compound `O=C1NCc2c(-c3cnc4n3CCCC4)ccc(Nc3ccc(N4CCC(O)CC4)cn3)c21` [I-296, 7-((5-(4-hydroxy-piperidin-1-yl)pyridin-2-yl)amino)-4-(5,6,7,8-tetrahydro-imidazo[1,2-a]pyridin-3-yl)isoindolin-1-one], the IC50 is 100 to 1000 nM. Next, `Cn1ccc2c(-c3ccc(Nc4ccc(N5CC6(CC(O)C6)C5)cn4)c4c3CNC4=O)ccnc21` [I-297, 7-((5-(6-hydroxy-2-azaspiro[3,3]heptan-2-yl)pyridin-2-yl)amino)-4-(1-methyl-1H-pyrrolo[2,3-b]pyridin-4-yl)isoindolin-1-one]: under 100 nM; `COCC1(O)CCN(c2ccc(Nc3ccc(-c4ccnc5c4ccn5C)c4c3C(=O)NC4)nc2)CC1` [I-298, 7-((5-(4-hydroxy-4-(methoxymeth-yl)piperidin-1-yl)pyridin-2-yl)amino)-4-(1-methyl-1H-pyrrolo[2,3-b]pyridin-4-yl)isoindolin-1-one]: under 100 nM; `Cn1ccc2c(-c3ccc(Nc4ccc(N5CCC6(CC5)COC6)cn4)c4c3CNC4=O)ccnc21` [I-299]: under 100 nM. Consider `O=C1NCc2c(-c3cnc4cnccn34)ccc(Nc3ccc(N4CCCOCC4)cn3)c21` [I-300, 7-((5-(1,4-oxazepan-4-yl)pyridin-2-yl)amino)-4-(imidazo[1,2-a]pyrazin-3-yl)isoindolin-1-one], for which the IC50 is under 100 nM.

In the case of `O=C1NCc2c(-c3cnc4cnccn34)ccc(Nc3ccc(N4CCCC(O)CC4)cn3)c21` (stereo not shown) [I-301, 7-((5-(4-hydroxyaze-pan-1-yl)pyridin-2-yl)amino)-4-(imidazo[1,2-a]pyrazin-3-yl)isoindolin-1-one], the IC50 is under 100 nM. Take `C[C@H]1CCn2c(-c3ccc(Nc4ccc(N5CCC(O)CC5)cn4)c4c3CNC4=O)cnc2C1` [I-303, (S)-7-((5-(4-hydroxy-piperidin-1-yl)pyridin-2-yl)amino)-4-(7-methyl-5,6,7.8-tetrahydroimi-dazo[1,2-a]pyridin-3-yl)isoindolin-1-one]: the IC50 is under 100 nM.

The term IC50 denotes the point on the concentration scale where inhibition reaches its midpoint.

The values above are taken from patent publication US11021481B2, “Substituted isoindolin-1-ones and 2,3-dihydro-1h-pyrrolo[3,4-c]pyridin-1-ones as HPK1 antagonists” (Nimbus Saturn, Inc., priority 2019, dated 2021).
